This assay concerns Wistar rats. As to the kind of experiment: elevated plus maze test 24 hours after ethanol narcosis. Conditions: 250 nM SkQ1 group; p<0.05. The format is in vivo, rat. The procedure: FIG. 8 is a graphic representation showing behavior parameters in the elevated plus maze test 24 hours after ethanol narcosis in % to negative control. (*−p<0.05 to intact control);
In these experiments, 6 groups of experimental animals (Wistar rats) were used. (1) The Intact Control group (n=12), had no ethanol narcosis, and were orally administered a normal isotonic 0.9% NaCl solution; (2) the Negative Control group (n=12) was orally administered a normal physiological solution after ethanol narcosis; (3) The SkQ1 50 nM control group (n=12) was orally administered SkQ1 in a concentration 50 nM after ethanol narcosis; (4) The SkQ1 250 nM control group (n=12) was orally administered SkQ1 in a concentration of 250 nM after ethanol narcosis; (5) The SkQ1 1250 nM control group (n=12) was orally administered SkQ1 in a concentration of 1250 nM after ethanol narcosis; (6) the SkQ1 1250 nM intr control group (n=13) was intraperitoneally administered SkQ1 in a concentration of 1250 nM after ethanol narcosis.
Twenty-four hours after ethanol narcosis, elevated plus maze (Treit et al. (1993) Pharmacol. Biochem. Behav. 44:463-9) and Porsolt forced swimming (Petit-Demouliere et al. (2005) Psychopharmacol. (Berl). 177: 245-55) tests were performed. […]

The source of these data is patent US20140329776A1, “Mitochondria-Targeted Antioxidants for Treatment of Age-Related Brain Disorders” (MITOTECH S.A., priority 2011, published 2014).

SMILES strings stand for the structures.

Take `CC1=C(C)C(=O)C(CCCCCCCCCC[P+](c2ccccc2)(c2ccccc2)c2ccccc2)=CC1=O` [SkQ1, plastoquinonyl decyltriphenyl-phosphonium]: the “looking out from closed arms” value is given as “increased” and the “number of risk behavior” value is given as “increased”.
